In patent US12545695B2, “Compounds for inhibiting neovascularization factors and use thereof” (UNIST (ULSAN NATIONAL INSTITUTE OF SCIENCE AND TECHNOLOGY), priority 2019, dated 2026):

Key:
TRAP-1 [1] = experiment: Pull-down assay: client proteins SIRT3 and SDHB on GST-TRAP1 beads; assay type: binding; conditions: TRAP1-bead form with isolated mitochondria and drug, 4° C., 18 hours (FIG. 14)
Protocol: A pull-down assay was performed to confirm whether SMx competitively binds to SIRT3 and SDHB, which are known as client proteins of TRAP-1. TRAP1 protein in the GST fusion form was purified from bacteria cells and then bound to glutathione beads to make a TRAP1-bead form, and then the TRAP1-bead form was bound to the mitochondria isolated from mammalian cells (Thermo Scientific mitochondria isolation kit) with a drug at 4° C. for 18 hours. The cells were treated with SMx, and gamitrinib and PU-H71, which are previously developed N-terminal domain inhibitors of hsp90s, as the drugs, according to the concentrations shown in the drawing. […] This is strong evidence that SMx has the ability to bind to the middle domain of TRAP-1.

TRAP-1 [2] = experiment: ATPase activity assay (PiColorLock Gold Phosphate Detection Kit); assay type: biochemical; conditions: TRAP1 0.5 μM, 0.2 mM ATP, inhibitor 0.520 μM preincubated 30 minutes (FIG. 16)
Protocol: ATPase activity was measured by measuring the release of inorganic phosphates through the PiColorLock Gold Phosphate Detection Kit (Innova Biosciences) according to the manufacturer's manual. TRAP1 (0.5 μM) was cultured with 0.2 mM ATP in 100 mM Tris, 20 mM KCl, and 6 mM MgCl2 under the conditions of pH 7.0 and 37° C. for 3 hours. Thereafter, the PiColorLock Gold reagent and an accelerator (100:1) were added to a 100 μL ATP hydrolyzate sample. After culturing at 25° C. for 5 minutes, the change in color was stopped by adding 10 μL of a stop solution thereto, and the absorbance at 620 nm was measured by SYNERGY NEO microplate reader (BioTek Instruments).
For inhibitory ability analysis, TRAP1 was cultured with a predetermined concentration (0.520 μM) of inhibitor for 30 minutes and then stirred with ATP. Absorbance values were normalized to a DMSO control and data was expressed as % ATPase activity.
For inhibitory ability analysis, TRAP-1 was cultured with a predetermined concentration (0.520 μM) of inhibitor for 30 minutes and then stirred with ATP. Absorbance values were normalized to a DMSO control and data was expressed as % ATPase activity.

| Molecule | binding of the client protein (SIRT3, SDHB) to TRAP-1 (TRAP-1 [1]) | ATPase activity of TRAP-1 (TRAP-1 [2]) |
| --- | --- | --- |
| gamitrinib | not significantly changed | – |
| CC(C)NCCCn1c(Sc2cc3c(cc2I)OCO3)nc2c(N)ncnc21 [PU-H71] | not significantly changed | significantly decreased according to the concentration |
